Laboratory results as given in patent publication US12472166B2, “Inhibition of mycobacterial type VII secretion” (priority 2019, dated 2025).
Entries after “also recorded” stand apart in the source; their conditions may differ.

Columns and labels:
Assay type in all cases: cell-based
[1] = test system: ESX-5 dependent secretion
[2] = test system: Apa (SEC dependent secretion)
[3] = test system: PE_PGRS and EsxN (ESX-5 dependent secretion)

SMILES	effect on ESX-5 secretion activity (lipase DGGR vs viability REMA) [1]	other results
O=C(CSc1nc(-c2ccccc2)ns1)NC1CCCC1 [Compound I-5]	significant reduction in lipase activity (substrate DGGR) before the bacterial viability (REMA) is affected	–
COc1ccc(-c2nsc(SCC(=O)NC3CCCC3)n2)cc1 [Compound I-12]	–	secretion of Apa [2]: did not affect secretion; secreted PE_PGRS proteins compared to DMSO control [3]: most drastic decrease; also recorded: secretion inhibition similar to the non-functional ESX-5 mutant; effect on secretion of the reporter lipase LipY when mspA was over-produced [1]: showed no changes; lipase secretion compared to DMSO treated control [1]: significant reduction of lipase secretion
COc1ccc(-c2nsc(SCC(=O)NCC3CCCC3)n2)cc1 [Compound I-38, reference compound]	do not affect the activity of ESX-5	–
Cc1cccc(-c2nsc(SCC(=O)NCC3CCCO3)n2)c1 (stereo not shown) [Compound I-39, reference compound]	do not affect the activity of ESX-5	–
CCOC(=O)CNC(=O)CSc1nc(-c2cccc(C)c2)ns1 [Compound I-40, reference compound]	affect ESX-5 secretion activity	–
CCOC(=O)CNC(=O)CSc1nc(-c2ccccc2)ns1 [Compound I-41, reference compound]	affect ESX-5 secretion activity	–
CO[C@H]1/C=C/O[C@@]2(C)Oc3c(C)c(O)c4c(O)c(c(/C=N/N5CCN(C)CC5)c(O)c4c3C2=O)NC(=O)/C(C)=C\C=C\[C@H](C)[C@H](O)[C@@H](C)[C@@H](O)[C@@H](C)[C@H](OC(C)=O)[C@@H]1C [Rifampin, reference compound]	–	lipase activity (DGGR) readout, control condition [1]: negative
